Common to all, as to assay type: biochemical
The target of experiment [1] is Carposina sasakii GSTs. As to the kind of experiment: Inhibition of total GSTs enzyme of Carposina sasakii (CDNB method). How it is done:
(§1) Experiment: About 50 mg of larvae/nymphs of nine major pests such as Plutella xylostella, Mythimna separata, Pyrausta nubilalis, Chilo suppressalis, Nilaparvata lugens, Spodoptera frugiperda, Helicoverpa armigera, Carposina sasakii, Spodoptera litura were taken, grounded in a mortar pre-cooled at −80° C., and then 1 mL of 100 mM sodium phosphate buffer (1 mM EDTA, pH 7.2) was added and fully homogenized. The homogenate was transferred to a 1.5 mL centrifuge tube at 4° C., and centrifuged at 14,000 g for 30 minutes, and the supernatant was transferred to a new centrifuge tube as the GSTs total enzyme. The protein concentrations of the above total enzymes were determined using the BCA method.
(§2) 100 μL of PBS buffer (100 mM, pH 7.2) containing 1 mM GSH was taken and placed in a 96-well plate, 5 μg of insect total GSTs enzymes and an appropriate concentration of compounds PXG1-PXG29 (29 compounds) of the present invention were added to each well, after uniformly mixing, and allowed to stand at 30° C. for 10 min. Then 100 μL of PBS buffer (100 mM, pH 7.2) containing 1 mM CDNB was added to each well. Immediately after mixing, the mixture was placed in a microplate reader to measure the absorbance at a wavelength of 340 nm (A 340) once every 1 min, the measurement was carried out continuously for 5 min, the light absorption values of each measuring point were recorded and the inhibition rate in vitro of the compounds with different concentrations against insects total GSTs enzymes were calculated. Each group of assays was repeated three times, and total GSTs enzymes inactivated at 100° C. for 5 min were used as negative controls, and GTX was used as positive controls. GraphPad Prism 5 software was used for analysis and calculation of IC50. Relative inhibition was calculated using the following formula:
(§3) [formula] • wherein, A340 is the change of A340 within 5 minutes for the control group, and A340t is the change of A340 within 5 minutes for the experimental group.

In experiment [2] the target is Nilaparvata lugens GSTs. The experiment can be described thus: Inhibition of total GSTs enzyme of Nilaparvata lugens (CDNB method). As to the method: as §1, §2, §3
Experiment [3] concerns the target Spodoptera litura GSTs. As to the kind of experiment: Inhibition of total GSTs enzyme of Spodoptera litura (CDNB method). As to the method:
as §1, §2, §3

Experiment [4] addresses Pyrausta nubilalis GSTs. The experiment can be described thus: Inhibition of total GSTs enzyme of Pyrausta nubilalis (CDNB method). How it is done:
as §1, §2, §3

The target in experiment [5] is PxGSTσ2 (Plutella xylostella, UniProt Q6F443). As to the kind of experiment: Inhibition of PxGSTσ2 recombinant protein. Conditions: read-out: 100 μM Inhibition rate %. How it is done:
(§4) Experiment: 100 μL of PBS buffer (100 mM, pH 7.2) was taken and added to a 96-well plate, 1 μg of PxGSTs recombinant protein and an appropriate concentration of the compounds PXG1-PXG29 of the present invention were added to each well, after uniformly mixing, and allowed to stand at 30° C. for 10 min. Then 100 μL of PBS buffer (100 mM, pH 7.2) containing 1 mM CDNB and 1 mM GSH was successively added to each well. Immediately after mixing, the mixture was placed in a microplate reader to measure the absorbance at a wavelength of 340 nm (A340) once every 1 min, the measurement was continued for 5 min, the light absorption values of each measuring point were recorded and the inhibition rate in vitro of the compounds PXG1-PXG29 of the present invention with different concentrations against PxGSTs recombinant protein were calculated. Each group of assays was repeated three times, and PxGSTs recombinant protein inactivated at 100° C. for 5 min was used as negative control, and GTX was used as positive control. GraphPad Prism 5 software was used for analysis and calculation of IC50. Relative inhibition was calculated using the following formula:
(§5) [formula] • wherein, A340c is the change of A340 […] the control group, an A340t is the change of A340 within 5 minutes for the experimental group.

The target of experiment [6] is PxGSTσ1 (Plutella xylostella, UniProt Q6F436). As to the kind of experiment: Inhibition of PxGSTσ1 recombinant protein. Conditions: read-out: 100 μM Inhibition rate %. How it is done: as §4, §5
Experiment [7] addresses PxGSTε3 (Plutella xylostella, UniProt O77409). The experiment can be described thus: Inhibition of PxGSTε3 recombinant protein. Conditions: read-out: 100 μM Inhibition rate %. As to the method: as §4, §5
The target of experiment [8] is Spodoptera frugiperda GSTs. As to the kind of experiment: Inhibition of total GSTs enzyme of Spodoptera frugiperda (CDNB method). As to the method: as §1, §2, §3
For experiment [9], the target named is Mythimna separata GSTs. The experiment can be described thus: Inhibition of total GSTs enzyme of Mythimna separata (CDNB method). As to the method:
as §1, §2, §3

Experiment [10] has as its target Chilo suppressalis GSTs. The experiment can be described thus: Inhibition of total GSTs enzyme of Chilo suppressalis (CDNB method). How it is done: as §1, §2, §3
In experiment [11] the target is Helicoverpa armigera GSTs. The experiment can be described thus: Inhibition of total GSTs enzyme of Helicoverpa armigera (CDNB method). How it is done:
as §1, §2, §3

The target of experiment [12] is Plutella xylostella GSTs. The experiment can be described thus: Inhibition of total GSTs enzyme of Plutella xylostella (CDNB method). As to the method:
as §1, §2, §3

Experiment [13] has as its target PxGSTδ1 (Plutella xylostella, UniProt D7URW9). As to the kind of experiment: Inhibition of PxGSTδ1 recombinant protein. Conditions: read-out: 100 μM Inhibition rate %. As to the method: as §4, §5

This is an account of results in patent publication US12617771B2, “Diphenylpyrazole compound, and preparation method therefor and application thereof” (NORTHWEST A&F UNIVERSITY, priority 2021, dated 2026).

A value given as a limit tells only on which side of the number the result lay.

Sequence of PxGSTσ2 (Q6F443 entry or part of it): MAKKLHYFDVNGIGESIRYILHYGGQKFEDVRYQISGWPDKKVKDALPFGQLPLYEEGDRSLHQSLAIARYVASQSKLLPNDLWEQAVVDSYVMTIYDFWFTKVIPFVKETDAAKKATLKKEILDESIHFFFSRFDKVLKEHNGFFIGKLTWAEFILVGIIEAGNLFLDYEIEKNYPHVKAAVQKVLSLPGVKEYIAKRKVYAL
Sequence of PxGSTσ1 (Q6F436 entry or part of it): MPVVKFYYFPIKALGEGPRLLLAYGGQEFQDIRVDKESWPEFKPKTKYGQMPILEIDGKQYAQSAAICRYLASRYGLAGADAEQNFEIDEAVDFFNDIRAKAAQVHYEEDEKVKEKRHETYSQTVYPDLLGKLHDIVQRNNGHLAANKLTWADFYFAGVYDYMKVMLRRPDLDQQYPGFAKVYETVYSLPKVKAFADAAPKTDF
Sequence of PxGSTδ1 (D7URW9 entry or part of it): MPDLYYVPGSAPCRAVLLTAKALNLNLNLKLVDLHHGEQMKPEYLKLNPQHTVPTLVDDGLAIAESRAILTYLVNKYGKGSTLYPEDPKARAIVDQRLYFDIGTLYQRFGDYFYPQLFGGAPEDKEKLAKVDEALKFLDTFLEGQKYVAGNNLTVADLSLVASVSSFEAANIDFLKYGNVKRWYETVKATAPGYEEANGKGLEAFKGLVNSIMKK
Sequence of PxGSTε3 (O77409 entry or part of it): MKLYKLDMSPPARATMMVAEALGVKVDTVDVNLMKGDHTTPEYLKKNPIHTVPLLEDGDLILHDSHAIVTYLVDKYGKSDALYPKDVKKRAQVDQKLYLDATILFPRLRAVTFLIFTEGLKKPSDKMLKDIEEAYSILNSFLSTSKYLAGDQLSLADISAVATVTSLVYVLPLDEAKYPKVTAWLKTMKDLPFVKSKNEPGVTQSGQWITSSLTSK

Consider `COc1cc(C(=O)NNC(=O)c2cc(-c3ccccc3)nn2-c2ccccc2)cc(OC)c1OC` [PXG4, N′-(1,3-diphenyl-1H-pyrazol-5-yl-carbonyl)-3,4,5-trimethoxybenzohydrazine], for which the IC50 in experiment [1], in experiment [2], in [3], in experiment [4], in experiment [8] and in experiment [9] was over 100 µM each time. The half-maximal inhibitory concentration (IC50) in experiment [10], in experiment [11] and in [12] was over 100 µM each time. The “100 μM Inhibition rate %” value is reported as 2.34% in experiment [1]; −5.99% in experiment [2]; −17.52% in experiment [3]; −7.23% in [4]; −7.57% in [8]; 0.00% in [9]. Also, the figures for the “100 μM Inhibition rate %” value in experiment [10], in [11] and in experiment [12] were −10.90%, 4.07% and −10.64%, respectively. Besides, the inhibition at 100 µM in [5] is 21.6%; in experiment [6], 43.6%; in [7], 8.88%; in experiment [13], 18.4%.
As for `O=C(COc1ccccc1)NNC(=O)c1cc(-c2ccccc2)nn1-c1ccccc1` [PXG5, N′-(1,3-diphenyl-1H-pyrazol-5-yl-carbonyl)-2-phenoxyacetohydrazide], the IC50 in experiment [1], in experiment [2], in [3], in [4], in experiment [8] and in experiment [9] was over 100 µM in each case. The IC50 in [10], in experiment [11] and in [12] was over 100 µM each time. The “100 μM Inhibition rate %” value turned out to be 23.22% in [1]; 23.90% in experiment [2]; 37.80% in experiment [3]; 14.08% in experiment [4]; 31.42% in experiment [8]; 47.24% in experiment [9]. The figures for the “100 μM Inhibition rate %” value in experiment [10], in experiment [11] and in experiment [12] were 28.17%, 9.57% and 11.58%, respectively. The inhibition at 100 µM in [5] was 24.5%; in [6] it was 35.6%; in experiment [7], -2.97%; in experiment [13] it was 81.7%.
`O=C(NN1C(=O)NC2(CCCCC2)C1=O)c1cc(-c2ccccc2)nn1-c1ccccc1` [PXG6]: the half-maximal inhibitory concentration (IC50) in experiment [1], in [2], in experiment [3], in experiment [4], in [8] and in [9] was over 100 µM throughout. The concentration for half-maximal inhibition (IC50) in experiment [10], in experiment [11] and in [12] was over 100 µM throughout. For the same compound, the “100 μM Inhibition rate %” value in experiment [1] is given as 18.21%; in experiment [2] it was −1.46%; in [3], 6.90%; in experiment [4], 13.70%; in experiment [8], 11.37%; in [9], 38.85%. The “100 μM Inhibition rate %” value in experiment [10] stood at 15.98%; in experiment [11], 23.21%; in [12] it was 21.15%. In addition, the inhibition at 100 µM in experiment [5] came to 33.6%; in [6] it was 49.1%; in [7], 4.85%; in [13], 12.2%.
